The source of these data is patent US20230365592A1 (Agios Pharmaceuticals, Inc., priority 2022, published 2023).

In the first experiment the target is T1, human PAH with the R408W mutation (Homo sapiens, UniProt P00439, R408W).
T1 construct: expressed in transfected cells
T1 sequence (P00439 1-452 R408W): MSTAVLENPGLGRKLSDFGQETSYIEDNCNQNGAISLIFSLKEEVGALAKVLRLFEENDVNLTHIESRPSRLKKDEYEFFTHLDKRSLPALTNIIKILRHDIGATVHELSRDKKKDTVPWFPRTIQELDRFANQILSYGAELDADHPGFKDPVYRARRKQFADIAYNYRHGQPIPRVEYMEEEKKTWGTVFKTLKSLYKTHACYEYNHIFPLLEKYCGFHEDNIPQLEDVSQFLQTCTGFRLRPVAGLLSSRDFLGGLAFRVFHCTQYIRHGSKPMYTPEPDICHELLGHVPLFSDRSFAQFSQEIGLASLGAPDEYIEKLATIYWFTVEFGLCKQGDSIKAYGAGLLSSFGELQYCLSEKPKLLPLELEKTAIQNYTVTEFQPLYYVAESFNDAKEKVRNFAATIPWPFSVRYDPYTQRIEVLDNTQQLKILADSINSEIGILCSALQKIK
The experiment can be described thus: Cell Based Phenylalanine Flux Assay.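 Note: after compound treatment, cells received sepiapterin plus isotope-labelled Phenylalanine for 4 hours, then labelled Tyrosine in the medium was quantified, 10-point 2-fold dilution series run in duplicate.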 To be noted: A375 cells expressing R408W PAH; 24 hrs with compound, then 20 µM sepiapterin and 800 µM 13C9,15N-Phenylalanine for 4 hours; 13C-Tyrosine by LC-MS; average where tested multiple times; read-out: AC50.
On to `CC(C)(F)c1nnc(N2CCc3[nH]cnc3C2c2cc3c(F)cccn3n2)o1` (stereo not drawn), for which the AC50 – broadly, the midpoint of the concentration-response curve, whichever way the signal moves – was in the range of 1000 to 5000 nM. Same read-out and setting: next, `COCCc1ccc2c(C(=O)N3CCc4[nH]cnc4C3c3cc4cccc(C(F)(F)F)n4n3)cnn2c1` (stereo not drawn): 1000 to 5000 nM; `CN1CCN(c2nnc(C(=O)N3CCc4[nH]cnc4C3c3cc4c(F)cccn4n3)o2)CC1` (stereo not drawn): 1000 to 5000 nM. Regarding `CC(C)(O)c1nnc(C(=O)N2CCc3[nH]cnc3C2c2cc3cccc(Cl)n3n2)o1` (stereo not drawn), the AC50 fell in the range of 1000 to 5000 nM. Still for that read-out and setting: next, `CC(C)(O)c1ncc(C(=O)N2CCc3[nH]cnc3C2c2cc3ccccn3n2)o1` (stereo not drawn): 1000 to 5000 nM; `O=C(C1CN(c2ccccn2)C1)N1CCc2[nH]cnc2C1c1cc2ccccn2n1` (stereo not drawn): 1000 to 5000 nM; `Cc1nnc(C(=O)N2CCc3[nH]cnc3C2c2cc3c(F)cccn3n2)s1` (stereo not drawn): 1000 to 5000 nM.

The experiment is the same for the next values; noted with them: A375 cells expressing human PAH R408W; 24 hrs compound incubation; 13C-Tyrosine by LC-MS; average where tested multiple times; read-out: AC50.
As to `c1cc(C2CC2)c2cc([C@@H]3c4nc[nH]c4CCN3c3cnccn3)nn2c1` [Example 2225, (S)-4-(4-cyclopropylpyrazolo[1,5-a]pyridin-2-yl)-5-(pyrazin-2-yl)-4,5,6,7-tetrahydro-1H-imidazo[4,5-c]pyridine], the concentration at half-maximal activity (AC50) was < 500 nM. `FC(F)c1cccn2nc([C@@H]3c4nc[nH]c4CCN3c3nnc(C4CCC4)o3)cc12` [Example 2485, (S)-2-cyclobutyl-5-(4-(4-(difluoromethyl)pyrazolo[1,5-a]pyridin-2-yl)-6,7-dihydro-1H-imidazo[4,5-c]pyridin-5(4H)-yl)-1,3,4-oxadiazole]: the AC50 was 1000 to 5000 nM. As for `Cc1cccn2nc([C@H]3c4nc[nH]c4CCN3C(=O)c3cnc(-c4cnn(C)c4)o3)cc12` [Example 1961, (R)-(2-(1-methyl-1H-pyrazol-4-yl)oxazol-5-yl)(4-(4-methylpyrazolo[1,5-a]pyridin-2-yl)-1,4,6,7-tetrahydro-5H-imidazo[4,5-c]pyridin-5-yl)methanone], the half-maximal activity concentration (AC50) was > 5000 nM. On the same count and under the same terms, next, `CC(F)(F)c1nnc(N2CCc3[nH]cnc3[C@H]2c2cc3c(C(F)(F)F)cccn3n2)o1` [Example 2195, (S)-2-(1,1-difluoroethyl)-5-(4-(4-(trifluoromethyl)pyrazolo[1,5-a]pyridin-2-yl)-1,4,6,7-tetrahydro-5H-imidazo[4,5-c]pyridin-5-yl)-1,3,4-oxadiazole]: < 500 nM; `Fc1ccc(-c2nnc(N3CCc4[nH]cnc4[C@H]3c3cc4cccc(C(F)(F)F)n4n3)o2)cc1` [Example 2129, (S)-2-(4-fluorophenyl)-5-(4-(7-(trifluoromethyl)pyrazolo[1,5-a]pyridin-2-yl)-1,4,6,7-tetrahydro-5H-imidazo[4,5-c]pyridin-5-yl)-1,3,4-oxadiazole]: < 500 nM. Still for that read-out and setting: the result for `Clc1cccc2cc([C@H]3c4nc[nH]c4CCN3c3ncccn3)nn12` [Example 2455, (R)-4-(7-chloropyrazolo[1,5-a]pyridin-2-yl)-5-(pyrimidin-2-yl)-4,5,6,7-tetrahydro-1H-imidazo[4,5-c]pyridine] reads 1000 to 5000 nM; that for `O=C(c1oc(-c2ccccn2)nc1C1CC1)N1CCc2[nH]cnc2[C@H]1c1cc2c(F)cccn2n1` [Example 2118, (S)-(4-cyclopropyl-2-(pyridin-2-yl)oxazol-5-yl)(4-(4-fluoropyrazolo[1,5-a]pyridin-2-yl)-1,4,6,7-tetrahydro-5H-imidazo(4,5-c]pyridin-5-yl)methanone], < 500 nM. On the same count and under the same terms, the result for `Cn1cc(-c2nnc(C(=O)N3CCc4[nH]cnc4[C@@H]3c3cc4c(F)cccn4n3)s2)cn1` [Example 2019, (R)-(4-(4-fluoropyrazolo[1,5-a]pyridin-2-yl)-1,4,6,7-tetrahydro-5H-imidazo[4,5-c]pyridin-5-yl)(5-(1-methyl-1H-pyrazol-4-yl)-1,3,4-thiadiazol-2-yl)methanone] reads > 5000 nM; that for `CC(C)c1cccn2nc([C@H]3c4nc[nH]c4CCN3C(=O)c3nnc(-c4cnn(C(F)F)c4)o3)cc12` [Example 1937, (R)-(5-(1-(difluoromethyl)-1H-pyrazol-4-yl)-1,3,4-oxadiazol-2-yl)(4-(4-isopropylpyrazolo[1,5-a]pyridin-2-yl)-1,4,6,7-tetrahydro-5H-imidazo[4,5-c]pyridin-5-yl)methanone], 1000 to 5000 nM. For the compound `CC(C)c1cccn2nc([C@H]3c4nc[nH]c4CCN3c3nnc(-c4ccncn4)o3)cc12` [Example 2181, (R)-2-(4-(4-isopropylpyrazolo[1,5-a]pyridin-2-yl)-1,4,6,7-tetrahydro-5H-imidazo[4,5-c]pyridin-5-yl)-5-(pyrimidin-4-yl)-1,3,4-oxadiazole], the AC50 is > 5000 nM. `CC(C)(C)c1nnc(C(=O)N2CCc3[nH]cnc3[C@H]2c2cc3c(C4CC4)cccn3n2)o1` [Example 1840, (S)-(5-(tert-butyl)-1,3,4-oxadiazol-2-yl)(4-(4-cyclopropylpyrazolo[1,5-a]pyridin-2-yl)-1,4,6,7-tetrahydro-5H-imidazo[4,5-c]pyridin-5-yl)methanone]: the AC50 was < 500 nM.

Regarding `O=C(c1ocnc1C1CC1)N1CCc2[nH]cnc2[C@H]1c1cc2cccc(Cl)n2n1` [Example 2042, (S)-(4-(7-chloropyrazolo[1,5-a]pyridin-2-yl)-1,4,6,7-tetrahydro-5H-imidazo[4,5-c]pyridin-5-yl)(4-cyclopropyloxazol-5-yl)methanone], the AC50 lay in the range of 500 to 1000 nM. On the same count and under the same terms, next, `COc1cccn2nc([C@@H]3c4nc[nH]c4CCN3c3nnc(C(F)(F)F)o3)cc12` [Example 2164, (S)-2-(4-(4-methoxypyrazolo[1,5-a]pyridin-2-yl)-1,4,6,7-tetrahydro-5H-imidazo[4,5-c]pyridin-5-yl)-5-(trifluoromethyl)-1,3,4-oxadiazole]: < 500 nM.

Staying with this experiment, now noted: A375 cells expressing human R408W PAH; 24 hrs compound incubation; 13C-Tyrosine by LC-MS; average where tested multiple times; read-out: AC50.
`Cn1nc(Cl)nc1C(=O)N1CCc2[nH]cnc2[C@H]1c1cc2cccc(C(F)(F)F)n2n1` [Example 1162, (S)-(3-chloro-1-methyl-1H-1,2,4-triazol-5-yl)(4-(7-(trifluoromethyl)pyrazolo[1,5-a]pyridin-2-yl)-6,7-dihydro-1H-imidazo[4,5-c]pyridin-5(4H)-yl)methanone]: the AC50 is < 500 nM. The same measure, in the same setting: next, `FC(F)(F)c1cnc(N2CCc3[nH]cnc3[C@H]2c2cc3ccccn3n2)nc1` [Example 1752, (S)-4-(pyrazolo[1,5-a]pyridin-2-yl)-5-(5-(trifluoromethyl)pyrimidin-2-yl)-4,5,6,7-tetrahydro-1H-imidazo[4,5-c]pyridine]: < 500 nM. The same measure, in the same setting: next, `Cc1ccc(-c2nnc(C(=O)N3CCc4[nH]cnc4[C@H]3c3cc4ccccn4n3)o2)nc1` [Example 673, (S)-(5-(5-methylpyridin-2-yl)-1,3,4-oxadiazol-2-yl)(4-(pyrazolo[1,5-a]pyridin-2-yl)-6,7-dihydro-1H-imidazo[4,5-c]pyridin-5(4H)-yl)methanone]: 500 to 1000 nM. In the case of `Cc1cccc2cc([C@@H]3c4nc[nH]c4CCN3C(=O)c3nnc(C4(C)CC4)o3)nn12` [Example 1319, (S)-(5-(1-methylcyclopropyl)-1,3,4-oxadiazol-2-yl)(4-(7-methylpyrazolo[1,5-a]pyridin-2-yl)-6,7-dihydro-1H-imidazo[4,5-c]pyridin-5(4H)-yl)methanone], the AC50 is < 500 nM. `Cc1cccc2cc([C@H]3c4nc[nH]c4CCN3C(=O)c3nnc(-c4cnn(C(F)(F)F)c4)o3)nn12` [Example 1447, (R)-(4-(7-methylpyrazolo[1,5-a]pyridin-2-yl)-6,7-dihydro-1H-imidazo[4,5-c]pyridin-5(4H)-yl)(5-(1-(trifluoromethyl)-1H-pyrazol-4-yl)-1,3,4-oxadiazol-2-yl)methanone]: the AC50 was > 5000 nM. Same read-out and setting: next, `Cc1ncccc1-c1nnc(C(=O)N2CCc3[nH]cnc3[C@@H]2c2cc3cccc(Cl)n3n2)o1` [Example 1335, (R)-(4-(7-chloropyrazolo[1,5-a]pyridin-2-yl)-6,7-dihydro-1H-imidazo[4,5-c]pyridin-5(4H)-yl)(5-(2-methylpyridin-3-yl)-1,3,4-oxadiazol-2-yl)methanone]: > 5000 nM; `COc1cccn2nc([C@@H]3c4nc[nH]c4CCN3C(=O)c3cnn4cc(C5CC5)ccc34)cc12` [Example 1788, (S)-(6-cyclopropylpyrazolo[1,5-a]pyridin-3-yl)(4-(4-methoxypyrazolo[1,5-a]pyridin-2-yl)-6,7-dihydro-1H-imidazo[4,5-c]pyridin-5(4H)-yl)methanone]: 500 to 1000 nM; `O=C(c1nnc(-c2ncccc2F)o1)N1CCc2[nH]cnc2[C@H]1c1cc2ccccn2n1` [Example 616, (S)-(5-(3-fluoropyridin-2-yl)-1,3,4-oxadiazol-2-yl)(4-(pyrazolo[1,5-a]pyridin-2-yl)-6,7-dihydro-1H-imidazo[4,5-c)pyridin-5(4H)-yl)methanone]: 500 to 1000 nM.

Consider `O=C(c1oc(C2(O)CC2)nc1C(F)F)N1CCc2[nH]cnc2[C@H]1c1cc2cccc(Cl)n2n1` [Example 1236, (S)-(4-(7-chloropyrazolo[1,5-a]pyridin-2-yl)-6,7-dihydro-1H-imidazo[4,5-c]pyridin-5(4H)-yl)(4-(difluoromethyl)-2-(1-hydroxycyclopropyl)oxazol-5-yl)methanone], for which the half-maximal activity concentration (AC50) was < 500 nM. Still for that read-out and setting: the result for `O=C(c1nnc(-c2ccccn2)o1)N1CCc2[nH]cnc2[C@H]1c1cc2ccc(F)cn2n1` [Example 1090, (S)-(4-(6-fluoropyrazolo[1,5-a]pyridin-2-yl)-6,7-dihydro-1H-imidazo[4,5-c]pyridin-5(4H)-yl)(5-(pyridin-2-yl)-1,3,4-oxadiazol-2-yl)methanone] reads 500 to 1000 nM.
